Active and inactive are the calls of the source. The rule behind the calls is not given here.
What was measured:
Rattus norvegicus [1] = experiment: (§1) Antiarthritic activity in MSU-induced acute gouty arthritis Sprague-Dawley rat model assessed as reduction in ankle swelling by measuring perimeter of ankle at 5 mg/kg, po qd pretreated via gavage for 5 days followed by MSU treatment at 1 hr post last dose measured after 24 hrs (reference value: 3.35 +/- 0.5 cm); type: functional
Rattus norvegicus [2] = experiment: as §1, with “at 2.5” for “at 5”, “after 12” for “after 24”, “value: 3.51” for “value: 3.35”, “+/- 0.52” for “+/- 0.5”; type: functional
[3] = target: Xanthine dehydrogenase/oxidase (Homo sapiens, UniProt P47989); experiment: Inhibition of Xanthine oxidase (unknown origin) using xanthine as substrate preincubated for 1 to 5 mins followed by substrate addition
Rattus norvegicus [4] = experiment: Inhibition of MSU-induced p65 NFkappaB protein level in synovial homogenate of acute gouty arthritis Sprague-Dawley rat model at 2.5 to 10 mg/kg, po qd pretreated via gavage for 5 days followed by MSU treatment at 1 hr post last dose measured up to 24 hrs by Western blot method; type: functional, organism-based
Rattus norvegicus [5] = experiment: Inhibition of MSU-induced IL-1beta level in serum of acute gouty arthritis Sprague-Dawley rat model at 2.5 to 10 mg/kg, po qd pretreated via gavage for 5 days followed by MSU treatment at 1 hr post last dose measured up to 24 hrs by ELISA; type: functional, organism-based
Rattus norvegicus [6] = experiment: Antiarthritic activity in po dosed MSU-induced acute gouty arthritis Sprague-Dawley rat model assessed as reduction in ankle swelling pretreated qd via gavage for 5 days followed by MSU treatment at 1 hr post last dose measured after 24 hrs; type: functional, organism-based
Rattus norvegicus [7] = experiment: as §1, with “at 10” for “at 5”, “after 2” for “after 24”, “value: 2.82” for “value: 3.35”, “+/- 0.75” for “+/- 0.5”; type: functional
Rattus norvegicus [8] = experiment: as §1, with “at 10” for “at 5”, “after 12” for “after 24”, “value: 3.51” for “value: 3.35”, “+/- 0.52” for “+/- 0.5”; type: functional
Rattus norvegicus [9] = experiment: Inhibition of MSU-induced phosphorylated IkappaB protein level in synovial homogenate of acute gouty arthritis Sprague-Dawley rat model at 2.5 to 10 mg/kg, po qd pretreated via gavage for 5 days followed by MSU treatment at 1 hr post last dose measured up to 24 hrs by Western blot method; type: functional, organism-based
Rattus norvegicus [10] = experiment: as §1, with “at 2.5” for “at 5”, “after 4” for “after 24”, “value: 3.18” for “value: 3.35”, “+/- 0.64” for “+/- 0.5”; type: functional
Rattus norvegicus [11] = experiment: Inhibition of MSU-induced TNFalpha level in synovial homogenate of acute gouty arthritis Sprague-Dawley rat model at 2.5 to 10 mg/kg, po qd pretreated via gavage for 5 days followed by MSU treatment at 1 hr post last dose measured up to 24 hrs by ELISA; type: functional, organism-based
Mus musculus = experiment: In vivo inhibition of XOD activity in liver of Kunming mouse model of potassium oxonate-induced hyperuricemia at 2.5 mg/kg, po treated 1 hr post potassium oxonate addition measured after 1 hr relative to control; type: functional

Xanthine dehydrogenase/oxidase, sequence (P47989 whole entry): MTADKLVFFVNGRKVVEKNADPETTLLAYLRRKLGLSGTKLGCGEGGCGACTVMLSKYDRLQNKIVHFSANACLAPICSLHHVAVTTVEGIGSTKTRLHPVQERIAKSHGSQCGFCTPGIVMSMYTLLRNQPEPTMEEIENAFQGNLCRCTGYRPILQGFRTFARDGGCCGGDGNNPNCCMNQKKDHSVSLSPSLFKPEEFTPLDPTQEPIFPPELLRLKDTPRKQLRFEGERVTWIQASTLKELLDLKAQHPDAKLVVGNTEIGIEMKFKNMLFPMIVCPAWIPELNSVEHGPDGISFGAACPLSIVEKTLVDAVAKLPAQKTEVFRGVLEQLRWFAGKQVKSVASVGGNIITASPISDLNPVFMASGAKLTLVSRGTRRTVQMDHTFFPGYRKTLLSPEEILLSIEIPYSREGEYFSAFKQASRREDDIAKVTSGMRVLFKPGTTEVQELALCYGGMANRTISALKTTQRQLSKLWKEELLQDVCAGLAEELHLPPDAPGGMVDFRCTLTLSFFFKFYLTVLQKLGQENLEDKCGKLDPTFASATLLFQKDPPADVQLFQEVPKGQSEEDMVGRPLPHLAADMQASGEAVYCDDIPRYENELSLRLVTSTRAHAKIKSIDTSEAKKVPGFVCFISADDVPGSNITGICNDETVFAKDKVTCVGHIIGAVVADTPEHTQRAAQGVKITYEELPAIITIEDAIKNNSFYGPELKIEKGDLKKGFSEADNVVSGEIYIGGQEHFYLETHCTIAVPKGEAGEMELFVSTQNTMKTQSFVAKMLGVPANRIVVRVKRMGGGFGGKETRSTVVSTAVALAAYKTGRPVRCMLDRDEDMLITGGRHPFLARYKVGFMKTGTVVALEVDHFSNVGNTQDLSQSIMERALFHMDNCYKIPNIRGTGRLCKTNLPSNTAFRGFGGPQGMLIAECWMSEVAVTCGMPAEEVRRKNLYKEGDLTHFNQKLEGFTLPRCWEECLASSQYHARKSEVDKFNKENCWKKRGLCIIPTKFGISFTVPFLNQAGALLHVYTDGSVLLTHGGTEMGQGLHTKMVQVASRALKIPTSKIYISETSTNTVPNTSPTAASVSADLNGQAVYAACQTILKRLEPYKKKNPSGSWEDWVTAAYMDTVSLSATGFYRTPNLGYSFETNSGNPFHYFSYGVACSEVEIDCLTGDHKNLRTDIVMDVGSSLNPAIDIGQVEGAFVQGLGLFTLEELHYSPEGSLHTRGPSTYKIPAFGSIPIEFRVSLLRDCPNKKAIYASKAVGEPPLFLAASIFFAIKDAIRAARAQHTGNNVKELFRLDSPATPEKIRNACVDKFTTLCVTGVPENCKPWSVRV

COc1ccc(C/C(=N\O)c2nc3ccc(OC)cc3o2)cc1
Activity (Rattus norvegicus [1]): 2.8 cm
Activity (Rattus norvegicus [2]): 3.14 cm
IC50 [3]: 3.7 µM
inhibition (Rattus norvegicus [4]): Active
inhibition (Rattus norvegicus [5]): Active
Activity (Rattus norvegicus [6]): Dose-dependent effect
Activity (Rattus norvegicus [7]): 2.69 cm
Activity (Rattus norvegicus [8]): 2.7 cm
inhibition (Rattus norvegicus [9]): Active
Activity (Rattus norvegicus [10]): 2.95 cm
inhibition (Rattus norvegicus [11]): Active
inhibition in vivo at 2.5 mg/kg (Mus musculus): 19.2%

— ChEMBL document CHEMBL4219086, “Development of benzoxazole deoxybenzoin oxime and acyloxylamine derivatives targeting innate immune sensors and xanthine oxidase for treatment of gout” (Bioorg Med Chem, 2018)
